Test results reported in BindingDB's records for doi:10.7270/Q2Q52N82 (The Scripps Research Institute Molecular Screening Center, 2012).
pIC50: −log10 of the molar value.

Biological target: ADP-ribosylation factor GTPase-activating protein 1 (Rattus norvegicus, UniProt Q62848)
Sequence (Q62848 whole entry): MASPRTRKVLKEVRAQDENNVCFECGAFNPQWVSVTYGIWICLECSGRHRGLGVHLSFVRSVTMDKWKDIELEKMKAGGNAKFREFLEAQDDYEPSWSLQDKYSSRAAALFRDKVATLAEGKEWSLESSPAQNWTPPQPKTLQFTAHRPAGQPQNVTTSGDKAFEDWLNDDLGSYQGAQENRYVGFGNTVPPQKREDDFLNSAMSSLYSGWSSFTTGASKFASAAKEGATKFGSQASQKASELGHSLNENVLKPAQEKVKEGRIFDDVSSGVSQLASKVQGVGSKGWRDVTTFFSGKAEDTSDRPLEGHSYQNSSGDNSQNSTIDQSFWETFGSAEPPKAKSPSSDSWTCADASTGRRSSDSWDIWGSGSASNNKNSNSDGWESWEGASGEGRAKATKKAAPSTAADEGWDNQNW

Structure (SMILES)	pIC50
CCOc1ccc2oc(C(=O)OCC(=O)N3CC(C)OC(C)C3)c(C)c2c1 (stereo not given) [[2-(2,6-dimethylmorpholin-4-yl)-2-oxoethyl] 5-ethoxy-3-methyl-1-benzofuran-2-carboxylate]	< 3.78
CCC(/C=C1\Sc2ccc(OC)cc2N1CCO)=C\c1sc2ccc(OC)cc2[n+]1CCO	< 3.78
Cc1ccc2nc(SCC(=O)Nc3cccc(Cl)c3)nc(=O)n2c1 [MLS001234985]	< 4.74
O=C(Nc1ccc(CN2CCOCC2)cc1)c1ccc(-c2cc(Cl)ccc2Cl)o1 [5-(2,5-dichlorophenyl)-N-[4-(4-morpholinylmethyl)phenyl]-2-furamide]	< 3.78
c1ccc(-c2cc(-c3nnc4sc(-c5ccccn5)nn34)[nH]n2)cc1 [3-(3-phenyl-1H-pyrazol-5-yl)-6-(2-pyridinyl)-[1,2,4]triazolo[3,4-b][1,3,4]thiadiazole]	< 3.78
COCC(C)n1c(C)cc(C(=O)CN2c3cccc4cccc(c34)S2(=O)=O)c1C (stereo not given) [MLS002169376]	< 3.78
O=NCc1ccc2noc(-c3ccc(Cl)cc3)c2c1 [SMR000549694]	4.29
COc1ccc(-c2cc3ccccc3oc2=O)cc1NC(=O)c1cccnc1 [N-[2-methoxy-5-(2-oxidanylidenechromen-3-yl)phenyl]pyridine-3-carboxamide]	< 3.78
CC1CC(C)CN(C(=O)COC(=O)c2cc3ccccc3cc2O)C1 (stereo not given) [[2-(3,5-dimethylpiperidin-1-yl)-2-oxidanylidene-ethyl] 3-oxidanylnaphthalene-2-carboxylate]	< 3.78
CC(C)=CCC/C(C)=C/Cc1c(O)ccc(C(=O)/C=C/c2ccc(O)cc2)c1O	< 3.78
C=CCNc1nc(NCc2cccc(OC)c2)c2sc(-c3ccccc3)cc2n1 [N4-[(3-methoxyphenyl)methyl]-6-phenyl-N2-prop-2-enyl-thieno[3,2-d]pyrimidine-2,4-diamine]	< 3.78
Cc1ccc2nc(SCC(=O)c3ccc(Cl)cc3)nc(=O)n2c1	< 3.78
C=c1cc2[nH]c(=O)c(=Cc3ccc(-c4cccc(Cl)c4)o3)c(=N)n2o1 [(6Z)-6-[[5-(3-chlorophenyl)-2-furanyl]methylidene]-7-imino-2-methyl-5-isoxazolo[2,3-a]pyrimidinone]	< 5.69
CN(C)CCNC(=O)c1ccc(-c2cn3c(-c4ccc(Oc5ccccc5)cc4)cnc3cn2)cc1 [MLS003123272]	< 4.74
CC(=O)c1cccc(NC(=O)c2cccc3c(-c4cnn(C)c4)coc23)c1 [MLS003120506]	< 3.78
